Assay results from PubChem BioAssay (NCI).
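Values below derive from 48-hour exposures of cells grown in 96-well plates, with endpoints linearly interpolated between the two concentrations bracketing the appropriate inhibition level. Abbreviation: GI50, concentration required for 50% inhibition of growth. TGI denotes the concentration required for complete inhibition of growth.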

Experiments:
Assay in all cases: NCI anticancer screen, dose series, 48 h
SF-539 CNS = system: SF-539 CNS
PC-3 prostate = system: PC-3 prostate
SR leukemia = system: SR leukemia
NCI/ADR-RES ovarian = system: NCI/ADR-RES ovarian
IGROV1 ovarian = system: IGROV1 ovarian
TK-10 renal = system: TK-10 renal
DU-145 prostate = system: DU-145 prostate
OVCAR-3 ovarian = system: OVCAR-3 ovarian
HCC-2998 colon = system: HCC-2998 colon
KM12 colon = system: KM12 colon
SF-268 CNS = system: SF-268 CNS
RXF 393 renal = system: RXF 393 renal
COLO 205 colon = system: COLO 205 colon
SK-MEL-5 melanoma = system: SK-MEL-5 melanoma
HOP-92 NSCLC = system: HOP-92 NSCLC
MDA-MB-231 breast = system: MDA-MB-231 breast
SW-620 colon = system: SW-620 colon
NCI-H23 lung = system: NCI-H23 lung
HCT-15 colon = system: HCT-15 colon
SNB-75 CNS = system: SNB-75 CNS
MDA-MB-468 breast = system: MDA-MB-468 breast
SNB-19 CNS = system: SNB-19 CNS
SK-MEL-28 melanoma = system: SK-MEL-28 melanoma
SK-MEL-2 melanoma = system: SK-MEL-2 melanoma
CAKI-1 renal = system: CAKI-1 renal
T-47D breast = system: T-47D breast
LOX IMVI melanoma = system: LOX IMVI melanoma
MALME-3M melanoma = system: MALME-3M melanoma
HS 578T breast = system: HS 578T breast

COc1ccc2cc([C@H](C)C(=O)NCc3ccccc3)ccc2c1 showed a GI50 (SF-539 CNS) of 3.08 µM, a TGI (SF-539 CNS) of 11.7 µM and a GI50 (PC-3 prostate) of 4.44 µM. The TGI (PC-3 prostate) was greater than 100 µM, the GI50 (SR leukemia) was 1.78 µM and the TGI (SR leukemia) was greater than 100 µM. The GI50 (NCI/ADR-RES ovarian) was 3.11 µM, the TGI (NCI/ADR-RES ovarian) was 12.2 µM and the GI50 (IGROV1 ovarian) was 5.5 µM. It also gave a TGI (IGROV1 ovarian) greater than 100 µM, a GI50 (TK-10 renal) of 13 µM and a TGI (TK-10 renal) greater than 100 µM. It also gave a GI50 (DU-145 prostate) of 5.52 µM, a TGI (DU-145 prostate) greater than 100 µM and a GI50 (OVCAR-3 ovarian) of 3.21 µM. The TGI (OVCAR-3 ovarian) was 22.9 µM, the GI50 (HCC-2998 colon) was 6.89 µM and the TGI (HCC-2998 colon) was greater than 100 µM. It also gave a GI50 (KM12 colon) of 4.56 µM, a TGI (KM12 colon) greater than 100 µM and a GI50 (SF-268 CNS) of 6.44 µM. For the same molecule, the TGI (SF-268 CNS) was greater than 100 µM, the GI50 (RXF 393 renal) was 2.57 µM and the TGI (RXF 393 renal) was 9.23 µM. For the same molecule, the GI50 (COLO 205 colon) was 3.03 µM, the TGI (COLO 205 colon) was 14 µM and the GI50 (SK-MEL-5 melanoma) was 3.17 µM. It also gave a TGI (SK-MEL-5 melanoma) greater than 100 µM, a GI50 (HOP-92 NSCLC) of 7.87 µM and a TGI (HOP-92 NSCLC) of 79.2 µM. It also gave a GI50 (MDA-MB-231 breast) of 4.72 µM, a TGI (MDA-MB-231 breast) greater than 100 µM and a GI50 (SW-620 colon) of 3.43 µM. For the same molecule, the TGI (SW-620 colon) was greater than 100 µM, the GI50 (NCI-H23 lung) was 5.48 µM and the TGI (NCI-H23 lung) was greater than 100 µM. It also gave a GI50 (HCT-15 colon) of 3.28 µM, a TGI (HCT-15 colon) greater than 100 µM and a GI50 (SNB-75 CNS) of 1.68 µM. For the same molecule, the TGI (SNB-75 CNS) was 7.16 µM, the GI50 (MDA-MB-468 breast) was 1.98 µM and the TGI (MDA-MB-468 breast) was 5.52 µM. For the same molecule, the GI50 (SNB-19 CNS) was 5.46 µM, the TGI (SNB-19 CNS) was 40.2 µM and the GI50 (SK-MEL-28 melanoma) was 7.12 µM. The TGI (SK-MEL-28 melanoma) was greater than 100 µM, the GI50 (SK-MEL-2 melanoma) was 3.93 µM and the TGI (SK-MEL-2 melanoma) was 34.7 µM. It also gave a GI50 (CAKI-1 renal) of 4.78 µM, a TGI (CAKI-1 renal) greater than 100 µM and a GI50 (T-47D breast) of 4.75 µM. For the same molecule, the TGI (T-47D breast) was greater than 100 µM, the GI50 (LOX IMVI melanoma) was 5.03 µM and the TGI (LOX IMVI melanoma) was greater than 100 µM. The GI50 (MALME-3M melanoma) was 3.88 µM, the TGI (MALME-3M melanoma) was greater than 100 µM and the GI50 (HS 578T breast) was 3.11 µM. The TGI (HS 578T breast) was 51.7 µM.
